# Measurements from patent publication EP1247803A2, “Indolinone compounds suitable for modulation of protein kinases” (Sugen, Inc., priority 1996, dated 1998).
# How the values were obtained:
# FLK-1 receptor = target: T1, FLK-1 receptor (Mus musculus, UniProt P35918); experiment: FLK-1 ELISA (kinase activity of the FLK-1 receptor in FLK-1/NIH3T3 cells, VEGF stimulated); type: cell-based; set-up: concentration or dose not given beside the values
# T1 construct: expressed in transfected cells; host or cells: NIH3T3 C7#3
# T1 sequence (P35918 20-1345): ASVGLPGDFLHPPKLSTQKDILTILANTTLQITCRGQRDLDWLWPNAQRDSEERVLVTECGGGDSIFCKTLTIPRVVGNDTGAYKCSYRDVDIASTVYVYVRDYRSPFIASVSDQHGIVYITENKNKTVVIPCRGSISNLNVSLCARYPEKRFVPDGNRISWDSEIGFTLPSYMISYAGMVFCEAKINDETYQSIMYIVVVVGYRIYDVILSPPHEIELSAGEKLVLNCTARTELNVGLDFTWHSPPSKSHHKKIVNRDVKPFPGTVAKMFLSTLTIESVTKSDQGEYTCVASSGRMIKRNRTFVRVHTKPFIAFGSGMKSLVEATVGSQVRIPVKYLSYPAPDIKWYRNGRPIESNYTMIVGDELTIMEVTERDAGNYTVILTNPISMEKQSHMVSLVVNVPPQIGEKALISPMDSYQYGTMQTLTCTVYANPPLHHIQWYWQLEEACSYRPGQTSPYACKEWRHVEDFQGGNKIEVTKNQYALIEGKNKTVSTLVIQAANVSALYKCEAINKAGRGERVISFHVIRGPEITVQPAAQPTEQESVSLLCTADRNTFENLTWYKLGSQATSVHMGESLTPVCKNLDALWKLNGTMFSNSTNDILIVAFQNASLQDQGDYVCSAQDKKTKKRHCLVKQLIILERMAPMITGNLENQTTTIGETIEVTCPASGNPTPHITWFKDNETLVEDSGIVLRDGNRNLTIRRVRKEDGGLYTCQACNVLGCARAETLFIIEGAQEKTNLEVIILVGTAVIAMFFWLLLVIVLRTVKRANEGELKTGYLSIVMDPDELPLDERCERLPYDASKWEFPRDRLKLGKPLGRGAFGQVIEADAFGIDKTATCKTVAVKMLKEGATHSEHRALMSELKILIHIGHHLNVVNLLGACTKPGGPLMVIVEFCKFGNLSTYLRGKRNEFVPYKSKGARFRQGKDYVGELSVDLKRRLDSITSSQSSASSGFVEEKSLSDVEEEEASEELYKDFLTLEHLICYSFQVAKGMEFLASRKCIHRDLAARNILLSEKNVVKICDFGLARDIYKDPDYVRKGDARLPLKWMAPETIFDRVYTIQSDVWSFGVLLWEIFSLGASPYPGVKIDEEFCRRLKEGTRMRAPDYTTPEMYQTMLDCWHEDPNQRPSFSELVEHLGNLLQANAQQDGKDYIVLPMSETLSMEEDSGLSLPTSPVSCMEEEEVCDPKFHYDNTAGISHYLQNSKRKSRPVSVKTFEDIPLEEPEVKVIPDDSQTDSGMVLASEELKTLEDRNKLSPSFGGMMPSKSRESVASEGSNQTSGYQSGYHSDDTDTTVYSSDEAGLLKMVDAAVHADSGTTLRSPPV
# Outline: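 FLK-1-expressing NIH3T3 C7#3 cells, starved overnight in 0.1% FBS medium, were treated with compounds at a 1:200 final dilution (0.5% DMSO) for 2 h at 37 °C, with VEGF stimulation. FLK-1 kinase activity was read by ELISA on anti-rabbit IgG plates using affinity-purified anti-FLK-1 antiserum.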
# PDGF-R = PDGF-R (Homo sapiens, UniProt P09619); experiment: PDGF-R ELISA; type: cell-based
# Chain of PDGF-R (P09619 33-1106, species assumed): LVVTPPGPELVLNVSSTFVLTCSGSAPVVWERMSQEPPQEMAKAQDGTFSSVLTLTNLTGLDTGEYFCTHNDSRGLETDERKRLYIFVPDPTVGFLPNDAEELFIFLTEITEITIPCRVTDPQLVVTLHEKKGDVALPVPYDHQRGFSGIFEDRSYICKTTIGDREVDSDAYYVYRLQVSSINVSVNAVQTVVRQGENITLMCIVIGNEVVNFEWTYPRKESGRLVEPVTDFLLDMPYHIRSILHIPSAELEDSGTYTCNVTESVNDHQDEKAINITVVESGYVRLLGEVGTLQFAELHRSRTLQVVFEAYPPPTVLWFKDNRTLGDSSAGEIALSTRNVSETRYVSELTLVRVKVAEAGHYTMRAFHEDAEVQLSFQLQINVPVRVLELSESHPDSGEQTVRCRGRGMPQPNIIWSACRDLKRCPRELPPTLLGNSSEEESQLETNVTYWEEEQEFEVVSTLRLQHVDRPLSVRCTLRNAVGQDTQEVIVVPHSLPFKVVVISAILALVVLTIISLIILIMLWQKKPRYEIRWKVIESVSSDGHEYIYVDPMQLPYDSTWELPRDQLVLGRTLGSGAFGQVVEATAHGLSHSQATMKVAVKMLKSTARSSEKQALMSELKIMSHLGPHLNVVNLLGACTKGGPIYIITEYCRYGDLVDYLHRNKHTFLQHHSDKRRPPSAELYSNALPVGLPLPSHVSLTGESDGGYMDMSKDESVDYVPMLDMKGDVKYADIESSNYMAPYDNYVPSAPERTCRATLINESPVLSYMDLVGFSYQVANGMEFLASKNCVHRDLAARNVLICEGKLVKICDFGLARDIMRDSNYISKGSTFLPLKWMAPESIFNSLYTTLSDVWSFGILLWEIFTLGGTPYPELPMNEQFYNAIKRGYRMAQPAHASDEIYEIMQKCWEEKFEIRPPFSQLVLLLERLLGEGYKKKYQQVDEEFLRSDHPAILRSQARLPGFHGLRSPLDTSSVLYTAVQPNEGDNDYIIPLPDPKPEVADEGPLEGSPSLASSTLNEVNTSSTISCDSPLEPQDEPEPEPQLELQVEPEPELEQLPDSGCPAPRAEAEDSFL
# Text: A PDGF-R ELISA is described in International Patent Publication No. WO 96/40116, published December 19, 1996 by Tang et al.
# MET = MET biochemical kinase assay; set-up: species or system human; concentration or dose not given beside the values
# Outline: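 Plates coated with anti-rabbit Fc bind a rabbit anti-MET antibody that captures receptor from cell lysates; unbound protein is washed off before compound and ATP-containing kinase buffer go in.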
SMILES,Fik Kinase %Inhibition (FLK-1 receptor) [%],PDGF Kinase %Inhibition (PDGF-R) [%],Met Kinase % Inhibition (MET) [%]
Cc1c(Br)ccc2c1C(=Cc1ccc(-c3ccccc3Cl)o1)C(=O)N2 [10730/C07],7.3,1.0,37.4
COc1cc(C=C2C(=O)Nc3ccc(S(=O)(=O)N4CCOCC4)cc32)cc(OC)c1OC [10730/F04],18.3,28.7,36.0
CC(=O)n1cc(C=C2C(=O)Nc3ccc(S(=O)(=O)Nc4ccc(C(F)(F)F)cc4)cc32)c2ccccc21 [10730/E05],8.7,28.7,49.0
O=C1Nc2ccc(I)cc2C1=Cc1cc2ccccc2nc1Cl [10730/B08],4.4,0.2,91.8
CNS(=O)(=O)c1ccc2c(c1)C(=Cc1cc3ccccc3nc1Cl)C(=O)N2 [10730/D08],8.6,12.9,-13.6
O=C1Nc2ccc(I)cc2C1=Cc1coc2c(Br)cc(Br)cc2c1=O [10730/B09],9.4,15.1,70.6
O=C1Nc2ccc(CCCl)cc2C1=Cc1ccncc1 [10729/G09],-3.3,1.9,49.6
O=C1Nc2ccc(S(=O)(=O)Nc3ccc(C(F)(F)F)cc3)cc2C1=Cc1coc2c(Br)cc(Br)cc2c1=O [10730/E09],21.8,20.3,33.9
O=C1Nc2c(Br)cc(Br)cc2C1=Cc1cc2ccccc2nc1Cl [10730/A08],-2.9,-6.0,69.0
O=C1Nc2c(Br)cc(Br)cc2C1=Cc1coc2c(Br)cc(Br)cc2c1=O [10730/A09],1.9,-4.7,69.5
COc1cc(OC)c(OC)cc1C=C1C(=O)Nc2ccc(S(=O)(=O)Nc3ccc(C(F)(F)F)cc3)cc21 [10730/E03],34.5,14.6,53.3
COc1ccc2ccccc2c1C=C1C(=O)Nc2ccc(CCCl)cc21 [10729/G02],18.8,16.7,31.3
COc1ccc(C=C2C(=O)Nc3c(Br)cc(Br)cc32)c(OC)c1OC [10730/A02],-3.7,-23.1,39.5
Cc1cc(C=C2C(=O)Nc3ccc(I)cc32)oc1C [10730/B11],1.9,-13.9,81.7
O=C1Nc2ccc(S(=O)(=O)Nc3ccc(C(F)(F)F)cc3)cc2C1=Cc1ccc(N2CCCC2)cc1 [10729/E10],5.7,11.8,7.5
CC(=O)n1cc(C=C2C(=O)Nc3ccc(S(=O)(=O)N4CCOCC4)cc32)c2ccccc21 [10730/F05],19.6,19.5,23.5
COc1cc(C=C2C(=O)Nc3ccc(S(=O)(=O)Nc4ccc(C(F)(F)F)cc4)cc32)cc(OC)c1OC [10730/E04],22.1,18.6,35.2
O=C1Nc2ccc(S(=O)(=O)Nc3ccc(C(F)(F)F)cc3)cc2C1=Cc1ccc(-c2ccccc2Cl)o1 [10730/E07],12.0,30.0,37.1
CNS(=O)(=O)c1ccc2c(c1)C(=Cc1cn(C(C)=O)c3ccccc13)C(=O)N2 [10730/D05],11.9,-1.6,38.1
COC1CC(C=C2C(=O)Nc3ccc(Br)c(C)c32)C(OC)O1 (stereo not drawn) [10730/C10],15.4,44.4,40.3
O=C1Nc2ccc(S(=O)(=O)N3CCOCC3)cc2C1=Cc1cc2ccccc2nc1Cl [10730/F08],2.1,-0.3,46.4
CNS(=O)(=O)c1ccc2c(c1)C(=CC1CC(OC)OC1OC)C(=O)N2 (stereo not drawn) [10730/D10],-15.3,-3.3,18.5
CNS(=O)(=O)c1ccc2c(c1)C(=Cc1coc3c(Br)cc(Br)cc3c1=O)C(=O)N2 [10730/D09],9.8,-1.6,59.1
CNS(=O)(=O)c1ccc2c(c1)C(=Cc1ccc(OC)c(OC)c1OC)C(=O)N2 [10730/D02],12.4,24.3,34.7
COc1cc(OC)c(OC)cc1C=C1C(=O)Nc2ccc(I)cc21 [10730/B03],-0.5,17.3,78.3
CNS(=O)(=O)c1ccc2c(c1)C(=Cc1cc(OC)c(OC)cc1OC)C(=O)N2 [10730/D03],8.4,19.0,34.2
O=C1Nc2ccc(CCCl)cc2C1=Cc1ccccn1 [10729/G07],-2.5,14.4,38.2
Cc1c(Br)ccc2c1C(=Cc1cc3ccccc3nc1Cl)C(=O)N2 [10730/C08],-2.3,8.5,56.5
COc1ccc(C=C2C(=O)Nc3ccc(CCCl)cc32)c2ccccc12 [10729/G03],10.4,13.7,20.1
COc1cc(OC)c(OC)cc1C=C1C(=O)Nc2ccc(S(=O)(=O)N3CCOCC3)cc21 [10730/F03],11.7,1.5,-0.6
